Measurements: PMC5716189, “Characterization of the APLF FHA–XRCC1 phosphopeptide interaction and its structural and functional implications” (Nucleic Acids Research, 2017)
Each block holds one molecule with its values, some of them ahead of it. Square brackets hold non-standard residues; d marks the D form. Peptide text beside a SMILES is read from it. * marks the point of attachment. FITC = O=C1OC2(c3ccc(O)cc3Oc3cc(O)ccc32)c2ccc(NC(=S)*)cc21; pT = C[C@@H](OP(=O)(O)O)[C@H](N)C(=O)O; pS = N[C@@H](COP(=O)(O)O)C(=O)O

Columns and labels:
[1] = molecular target: T1, APLF FHA domain (Homo sapiens, UniProt Q8IW19); assay: Fluorescence polarization peptide binding assay; conditions: FP; for Kd: room temperature
T1 construct: His6 (N, cleaved yes); TEV cleavage site (N, cleaved yes); made in house; host or cells: Escherichia coli Rosetta2 (DE3)
T1 sequence (Q8IW19 1-108 limits assumed): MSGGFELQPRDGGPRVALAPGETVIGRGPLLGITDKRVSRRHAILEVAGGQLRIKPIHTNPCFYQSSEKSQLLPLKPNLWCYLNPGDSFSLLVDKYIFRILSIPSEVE
Procedure: Apparent dissociation constants for peptide-protein interactions were determined based on fluorescence polarization measurements of fluorescein-labeled peptides on a POLARstar Omega fluorescence polarization (FP) reader (BMG Labtech) using an excitation wavelength of 485 nm and the emission measured at 520 nm at room temperature. XRCC1 phosphopeptides used in FP studies (Table 1) were labeled with an N-terminal FITC-Gly-Gly fluorophore. Measurements were made as a function of pH in the range from pH 7.4 to 5.5 in FP buffer consisting of 25 mM HEPES, 25 mM MES, 150 mM NaCl, 1 mM EDTA, 2 mM DTT and 0.05% Tween 20. Samples of the APLF FHA domain in FP buffer were prepared at pH 7.4, 7.0, 6.5, 6.0 and 5.5. Samples corresponding to each titration step were put in a 96-well black flat-bottomed plate and the fluorescence emission polarization was determined. The FP results were normalized to a 0–1 scale after curve-fitting for the direct comparison of results from different conditions. Data for the interaction of a phosphopeptide (L) with APLF FHA (M) were fit to a single-site binding equation as described previously ([39]). All phosphopeptides used were synthesized by either GenScript or Thermo Fisher.

[2] = molecular target: T1, APLF FHA domain; assay: 1H,15N-HSQC NMR phosphopeptide titration; format: binding; conditions: pH 7.4, 0.1 mM U-[15N] APLF FHA, 25 mM HEPES, 25 mM MES, 150 mM NaCl, 1 mM EDTA, 35°C
Procedure: (§1) All NMR experiments were performed at 35°C on a Varian INOVA 500 MHz spectrometer equipped with a triple-resonance, pulsed-field gradient cryo-probe, with the exception of the ^31P experiments, which were collected on an Agilent/Varian DD2 600 MHz spectrometer equipped with a heteronuclear broadband probe. The backbone chemical shift assignments were made from 3D HNCACB, CBCA(CO)NH, HNCA, HN(CO)CA, HNCO and HN(CA)CO experiments that were obtained using Agilent BioPack pulse sequences (Agilent). The 3D experiments were acquired with non-uniform sampling to speed up the data acquisition ([36],[37]). Since several of the amide resonances were broadened as a result of the intermediate amide proton exchange dynamics at pH 7.4, a low pH buffer, 25 mM sodium citrate, 50 mM NaCl, and 1 mM EDTA, pH 5.5, was used for the amide backbone assignments. For phosphopeptide titration experiments, 2D ^1H,^15N-HSQC spectra were acquired on a sample containing 0.1 mM U-[^15N] APLF-FHA in 25 mM HEPES, 25 mM MES, 150 mM NaCl, 1 mM EDTA, pH 7.4 as a function of phosphopeptide concentration. The interaction of sodium phosphate, sodium sulfate, and sodium ethylsulfate with U-[^15N] APLF FHA sample was also studied by monitoring the ^1H,^15N-HSQC spectrum of the labeled protein as a function of the anion concentration. The volume of peptide or anion added never exceeded more than 10% of the total volume.

[3] = molecular target: T1, APLF FHA domain; assay: NMR lineshape simulation of amide exchange data; format: binding; conditions: two-site exchange lineshape simulation; pH 7.4; 35°C
Procedure: as §1, with “APLF-FHA in 25 mM HEPES, 25 mM MES, 150 mM NaCl, 1 mM EDTA, pH 7.4 as a function of phosphopeptide concentration. The interaction of sodium phosphate, sodium sulfate, and sodium ethylsulfate with U-[^15N] APLF FHA sample was also studied by monitoring the ^1H,^15N-HSQC spectrum of the labeled protein as a function of the anion concentration. The volume of peptide or anion added never exceeded more than 10% of the total volume.” left out
The lineshape simulations utilized a Mathematica algorithm (Wolfram Research, Champaign, IL, USA) based on the two-site exchange formalism given by Rogers and Woodbrey ([40]). The fraction of bound ligand, pB, is initially calculated using the above relation, the FHA domain and peptide concentrations and an assumed Kd value which is then varied to optimize the agreement with the experimental spectra. […]

[4] = molecular target: T1, APLF FHA domain; assay: 1H,15N-HSQC NMR titration with inorganic anions; format: binding; conditions: for amide shift changes of U-[15N] APLF FHA produced by the anion: 0-150 mM titrant, 0.1 mM protein; for Kd: amide shifts of the more strongly shifted resonances, 25 mM HEPES, 25 mM MES, 150 mM NaCl, 1 mM EDTA, 1:1 binding, read-out: phosphate Kd
Procedure: as §1

[5] = free amino acid; cited from earlier work
Description: This selectivity implies that most phosphopeptides formed by CK2-dependent phosphorylation contain multiple anionic residues and are often multiply phosphorylated.

[6] = 31P NMR pH titration of free phosphopeptides (pK determination); format: physicochemical; conditions: pH 8.5 to 4.0, 0.5 mM peptide, 50 mM sodium acetate, 50 mM sodium cacodylate, 1 mM EDTA, TMP reference, Henderson-Hasselbalch fit
Procedure: 1D ^31P-NMR experiments were employed to determine the pK values of the phosphate groups in phosphopeptides and to characterize the interaction of the phosphopeptide with the APLF-FHA domain. Experimental parameters included a ^31P offset of 2.48 ppm, a sweep width of 20 ppm, an acquisition time of 1 sec, a relaxation delay of 1 sec, and 1024 scans were acquired per experiment. Phosphopeptide concentrations of 0.5 mM were used in all 1D ^31P NMR experiments. A two-dimensional selective ^1H,^31P-HSQC experiment ([38]) was used to assign the phosphoserine and phosphothreonine resonances. […]
Measurements of the pK values of the free phosphopeptides were performed in 50 mM sodium acetate, 50 mM sodium cacodylate, 1 mM EDTA as a function of pH with 0.5 mM tri-methylphosphate (TMP) added as a chemical shift reference. Small amounts of 0.1 N NaOH or HCl were titrated to vary the pH in the range from 8.5 to 4.0 in 0.2–0.4 pH decrements. pK values were determined by fitting the pH-dependent chemical shift data to a Henderson–Hasselbalch equation: where δP and δU correspond to the protonated and unprotonated chemical shifts. The dependence of the phosphopeptide ^31P NMR shifts as a function of APLF FHA domain concentration were determined in 25 mM HEPES, 25 mM MES, 150 mM NaCl, 1 mM EDTA, pH 7.4, with 0.25 mM TMP added as a chemical shift reference. […]

[7] = pH 6.0, FITC-Gly-Gly labelled peptide, FP buffer
[8] = pH 6.5, FITC-Gly-Gly labelled peptide, FP buffer
[9] = pH 7.4, N-terminal FITC-Gly-Gly labelled peptide, 25 mM HEPES, 25 mM MES, 150 mM NaCl, 1 mM EDTA, 2 mM DTT, 0.05% Tween 20, single-site fit

Molecule: C[C@H](NC(=O)[C@H](Cc1ccc(O)cc1)NC(=O)[C@@H]1CCCN1C(=O)[C@@H](N)CC(=O)O)C(=O)NCC(=O)N[C@@H](CCC(=O)O)C(=O)N[C@H](C(=O)N[C@@H](CC(=O)O)C(=O)N[C@@H](CCC(=O)O)C(=O)N[C@@H](CC(N)=O)C(=O)N[C@H](C(=O)N[C@@H](CC(=O)O)C(=O)N[C@@H](CO)C(=O)N[C@@H](CCC(=O)O)C(=O)N[C@@H](CCC(=O)O)C(=O)N[C@@H](Cc1c[nH]cn1)C(=O)N[C@@H](CCC(N)=O)C(=O)N[C@@H](CCC(=O)O)C(=O)O)[C@@H](C)O)[C@@H](C)OP(=O)(O)O [XRCC1EpT-18] (H-DPYAGE[pT]DENTDSEEHQE-OH)
Kd [1, 7]: > 300 µM
Kd [1, 8]: > 50 µM
Kd [1, 9]: 9.94 ± 4.6 µM

Molecule: C[C@H](NC(=O)[C@H](Cc1ccc(O)cc1)NC(=O)[C@@H]1CCCN1C(=O)[C@H](CC(=O)O)NC(=O)CNC(=O)CNC(=S)Nc1ccc2c(c1)C(=O)OC21c2ccc(O)cc2Oc2cc(O)ccc21)C(=O)NCC(=O)N[C@@H](CO)C(=O)N[C@H](C(=O)N[C@@H](CC(=O)O)C(=O)N[C@@H](CCC(=O)O)C(=O)N[C@@H](CC(N)=O)C(=O)N[C@H](C(=O)N[C@@H](CC(=O)O)C(=O)N[C@@H](CO)C(=O)N[C@@H](CCC(=O)O)C(=O)N[C@@H](CCC(=O)O)C(=O)N[C@@H](Cc1c[nH]cn1)C(=O)N[C@@H](CCC(N)=O)C(=O)N[C@@H](CCC(=O)O)C(=O)O)[C@@H](C)O)[C@@H](C)OP(=O)(O)O [XRCC1SpT-18] ({FITC}-GGDPYAGS[pT]DENTDSEEHQE-OH; C-terminus assumed)
Kd [1, 9]: > 20 µM

Molecule: N[C@@H](COP(=O)(O)O)C(=O)O [phosphoserine]
phosphate pK (dianionic/monoanionic) [5]: approximately 5.75

Molecule: C[C@@H](OP(=O)(O)O)[C@H](N)C(=O)O [phosphothreonine]
phosphate pK (dianionic/monoanionic) [5]: ~5.95

Molecule: O=S(=O)([O-])[O-].[Na+].[Na+] [sulfate, sodium sulfate]
amide shift changes of U-[15N] APLF FHA produced by the anion ([4]; pH 7.4): perturbs the same resonances that are sensitive to phosphate, although to a lesser extent

Further lines, with some results ahead:

Kd [2]: 80 µM
Molecule: C[C@H](NC(=O)[C@H](Cc1ccc(O)cc1)NC(=O)[C@@H]1CCCN1)C(=O)NCC(=O)N[C@@H](COP(=O)(O)O)C(=O)N[C@H](C(=O)N[C@@H](CC(=O)O)C(=O)N[C@@H](CCC(=O)O)C(=O)N[C@@H](CC(N)=O)C(=O)O)[C@@H](C)OP(=O)(O)O [XRCC1pSpT-9] (H-PYAG[pS][pT]DEN-OH)

Kd ([1]; pH 5.5, FITC-Gly-Gly labelled peptide, FP buffer): > 60 µM
Kd [1, 7]: > 25 µM
fold reduction of binding affinity at pH 6.0 ([1]; pH 6.0 relative to pH 7.4): > 8 fold
Kd [1, 8]: 8.23 ± 1.89 µM
fold reduction of binding affinity at pH 6.5 ([1]; pH 6.5 relative to pH 7.4): less than 2.5 fold
Kd ([1]; pH 7.0, FITC-Gly-Gly labelled peptide, FP buffer): 4.67 ± 0.04 µM
Kd [1, 9]: 3.31 ± 0.15 µM
τB, lifetime of the protein-peptide complex [3]: 0.9 ms
Molecule: C[C@H](NC(=O)[C@H](Cc1ccc(O)cc1)NC(=O)[C@@H]1CCCN1C(=O)[C@H](CC(=O)O)NC(=O)CNC(=O)CNC(=S)Nc1ccc2c(c1)C(=O)OC21c2ccc(O)cc2Oc2cc(O)ccc21)C(=O)NCC(=O)N[C@@H](COP(=O)(O)O)C(=O)N[C@H](C(=O)N[C@@H](CC(=O)O)C(=O)N[C@@H](CCC(=O)O)C(=O)N[C@@H](CC(N)=O)C(=O)N[C@H](C(=O)N[C@@H](CC(=O)O)C(=O)N[C@@H](CO)C(=O)N[C@@H](CCC(=O)O)C(=O)N[C@@H](CCC(=O)O)C(=O)N[C@@H](Cc1c[nH]cn1)C(=O)N[C@@H](CCC(N)=O)C(=O)N[C@@H](CCC(=O)O)C(=O)O)[C@@H](C)O)[C@@H](C)OP(=O)(O)O [XRCC1pSpT-18] ({FITC}-GGDPYAG[pS][pT]DENTDSEEHQE-OH; C-terminus assumed)

fold reduction of Kd relative to XRCC1pSpT-18 ([1]; pH 7.4): 10 fold
Molecule: C[C@H](NC(=O)[C@H](Cc1ccc(O)cc1)NC(=O)[C@@H]1CCCN1C(=O)[C@H](CC(=O)O)NC(=O)CNC(=O)CNC(=S)Nc1ccc2c(c1)C(=O)OC21c2ccc(O)cc2Oc2cc(O)ccc21)C(=O)NCC(=O)N[C@@H](COP(=O)(O)O)C(=O)N[C@H](C(=O)N[C@@H](CC(=O)O)C(=O)N[C@@H](CCC(=O)O)C(=O)N[C@@H](CC(N)=O)C(=O)N[C@@H](CCC(=O)O)C(=O)N[C@@H](CC(=O)O)C(=O)N[C@@H](CCC(=O)O)C(=O)N[C@@H](CCC(=O)O)C(=O)N[C@@H](CCC(=O)O)C(=O)N[C@@H](Cc1c[nH]cn1)C(=O)N[C@@H](CCC(N)=O)C(=O)N[C@@H](CCC(=O)O)C(=O)O)[C@@H](C)OP(=O)(O)O [XRCC1pSpTEE-18] ({FITC}-GGDPYAG[pS][pT]DENEDEEEHQE-OH; C-terminus assumed)

amide shift changes of U-[15N] APLF FHA produced by the anion ([4]; pH 7.4, listed as sodium ethylsulfate): negligible shifts
Molecule: CCOS(=O)(=O)[O-].[Na+] [ethylsulfate, sodium ethylsulfate]
amide shift changes of U-[15N] APLF FHA produced by the anion ([4]; pH 7.4): fails to produce any significant amide shifts

Kd ([4]; pH 5.5): 92500 ± 17800 µM
Kd ([4]; pH 7.4): 14100 ± 3700 µM
Molecule: O=P(O)(O)O [phosphate, sodium phosphate]

pK of pSer phosphate [6]: 6.90
pK of pThr phosphate [6]: 7.22
Molecule: VYDEpSpTDEESEN [XRCC4pSpT-12, 12-residue XRCC4 peptide phosphorylated on Ser232/Thr233]
